Source: patent US12076436B2, “Bacterial ferment of Lactobacillus species” (Symrise AG, priority 2021, dated 2024)

Tests used:
[1] = tested on: Lactobacillus cultures; test: Reduction of Lactobacillus viability by treatment with lactic acid (plating of serial dilutions); type: cell-based
[2] = tested on: Interleukin-8 (IL8); test: IL8 secretion by EpiDerm 3D reconstituted skin models after IL1a stimulation (ELISA); type: cell-based, human; settings: supernatants; 72 h topical treatment, then 1 μg/ml IL1a approx. 24 h; triplicates; dexamethasone at 50 μM
Description: (§1) To assess the effect of the bacterial ferment according to the invention on the secretion levels of IL8, reconstituted 3D skin models (EpiDerm™, MatTek) were used. After a short acclimation phase (daily medium changes), the models were switched to hydrocortisone-free medium, and test compounds were added topically to the reconstituted models. 50 μM dexamethasone was used as positive control, PBS served as negative control in the experiment. After 72 h incubation at 37° C. 5% CO2, the 3D models were washed with PBS and subsequently, an inflammatory response was stimulated by addition of 1 μg/ml Ma in the medium for approx. 24 h. Supernatants were collected after this phase and the IL8 concentration in these supernatants was determined using an ELISA kit (Human […] DuoSet ELISA, R&D Systems). To assess potential toxic effects of the test compounds on the 3D models, a standard MTT assay was carried out to assess viability of the 3D models at the end of the experiment.

[3] = tested on: MatTek EpiDerm 3D reconstituted skin models; test: MTT viability of the 3D skin models; type: cell-based, human; settings: MTT assay at end of experiment; dexamethasone at 50 μM
Description: as §1

Row | Structure (SMILES) | Lactobacillus count (log cfu/ml) ([1]; 2 % (w/v) lactic acid, 37° C., 12 h) | Lactobacillus count (log cfu/ml) ([1]; 2.8 % (w/v) lactic acid, 37° C., 12 h) | Lactobacillus count (log cfu/ml) ([1]; 3 % (w/v) lactic acid, 37° C., 12 h) | Lactobacillus count (log cfu/ml) ([1]; 3.4 % (w/v) lactic acid, 37° C., 12 h) | Lactobacillus count (log cfu/ml) ([1]; 3.6 % (w/v) lactic acid, 37° C., 12 h) | Lactobacillus count (log cfu/ml) ([1]; 4 % (w/v) lactic acid, 37° C., 12 h) | Lactobacillus count (log cfu/ml) ([1]; 4.4 % (w/v) lactic acid, 37° C., 12 h) | Lactobacillus count (log cfu/ml) ([1]; 4.8 % (w/v) lactic acid, 37° C., 12 h) | Lactobacillus count (log cfu/ml) ([1]; 5 % (w/v) lactic acid, 37° C., 12 h) | Lactobacillus count (log cfu/ml) ([1]; 5.4 % (w/v) lactic acid, 37° C., 12 h) | Lactobacillus count (log cfu/ml) ([1]; 6 % (w/v) lactic acid, 37° C., 12 h) | Lactobacillus count (log cfu/ml) ([1]; 6.8 % (w/v) lactic acid, 37° C., 12 h) | lactic acid concentration range of optimal reduction of Lactobacillus count ([1]; 37° C., 12 h) | reduction in bacterial count by short pH shock with lactic acid ([1]; step c of the method, bacterial ferment supernatant) | IL-8 concentration [pg/ml] ± SEM [2] [pg/mL] | Viability (% vs stimulated control) [3] [% vs stimulated control]
1 | CC(O)C(=O)O (stereo not shown) [Lactic Acid, lactic acid] | 7.54 | 7.08 | 5.45 | 4.72 | 5.09 | 3.52 | 3.60 | 3.00 | 1.00 | 1.38 | 1.95 | 1.70 | ca. 5 % (w/v) | at least 9 order |  | 
2 | C[C@@H]1C[C@H]2[C@@H]3CCC4=CC(=O)C=C[C@]4(C)[C@@]3(F)[C@@H](O)C[C@]2(C)[C@@]1(O)C(=O)CO [Dexamethasone, dexamethasone] |  |  |  |  |  |  |  |  |  |  |  |  |  |  | 1225 ± 18.61 | 90
